Source: article PMC6001238, “Iterative Chemical Engineering of Vancomycin Leads to Novel Vancomycin Analogs With a High in Vitro Therapeutic Index” (Frontiers in Microbiology, 2018)
Converted amounts (≈) assume the structure as drawn. Like-named read-outs stand apart in the source and are kept apart here.

Tests used:
MRSA KS2 = test: MIC, broth microdilution, MRSA KS2; type: cell-based, Staphylococcus aureus
How it was run: (§1)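 Susceptibility was scored by broth microdilution (CLSI). In one instance each vancomycin analog or control antibiotic was tested in the presence of vancomycin, 10 μM final, and ultrapure water plus non-inoculated broth were included as controls.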

[1] = test system: human cervix carcinoma (HeLa) cells; test: Cytostatic activity, HeLa cell proliferation; type: cell-based; conditions: mean ± SD of three experiments; highest concentration tested 250 µM; 4 days; read-out: Toxicity (IC50) HeLa
How it was run: (§2)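 Readout: Coulter cell number after drug exposure at 37°C. Durations differ by line (L1210 2 days; CEM 3 days; HeLa 4 days). Stock suspension 300,000–500,000 cells/mL, diluted by mixing with compound. Endpoint: IC50 vs negative control.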

[2] = test system: Clostridium difficile ATJ ribotype 014/20; test: MIC, plate drop assay, C. difficile ATJ ribotype 014/20; type: cell-based; conditions: for MIC-fold improvement vs. vancomycin: C. difficile ATJ ribotype 014/20
How it was run: (§3)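 Twofold dilution series of test compounds were spotted onto C. difficile lawns in 0.4% BHI agar containing added calcium and magnesium salts. After overnight anaerobic incubation at 37°C, growth inhibition was scored by spot clearing; triplicate runs, ultrapure water negative control.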

[3] = test system: L1210, CEM and HeLa cell lines; test: Cytostatic activity, average or summary over L1210, CEM and HeLa; type: cell-based
How it was run: as §2

E. faecalis VRE 53 = test: MIC, broth microdilution, vancomycin-resistant E. faecalis VRE 53 (VanA); type: cell-based, Enterococcus faecalis
How it was run: as §1

[4] = test system: Murine leukemia (L1210) cells; test: Cytostatic activity, L1210 cell proliferation; type: cell-based; conditions: mean ± SD of three experiments; highest concentration tested 250 µM; 2 days; read-out: Toxicity (IC50) L1210
How it was run: as §2

S. aureus VISA/HIP5827 = test: MIC, broth microdilution, vancomycin-intermediate S. aureus VISA HIP5827; type: cell-based, Staphylococcus aureus
How it was run: as §1

[5] = test system: 24 clinical MRSA isolates; test: MIC against a set of 24 clinical MRSA isolates (range, MIC50, TI); type: cell-based, Staphylococcus aureus
How it was run: as §1

VE 152 (VanB) = test: MIC, VanB-type VRE strain VE 152; type: cell-based, Enterococcus; conditions: VE 152, VanB; read-out: MIC
How it was run: as §1

E. faecalis VSE 1 = test: MIC, broth microdilution, vancomycin-sensitive E. faecalis (VSE 1); type: cell-based, Enterococcus faecalis
How it was run: as §1

33 clinical VRE isolates = test: MIC against a set of 33 clinical VRE isolates (range, MIC50, TI); type: cell-based, Enterococcus faecalis
How it was run: as §1

E. faecalis VRE 37 = test: MIC, broth microdilution, vancomycin-resistant E. faecalis VRE 37 (VanA); type: cell-based, Enterococcus faecalis
How it was run: as §1

MRSA = test: Minimum bactericidal concentration against MRSA; type: cell-based, Staphylococcus aureus
Description: Plates were incubated overnight at 37°C and colony growth was inspected.

[6] = test system: human T-lymphocyte (CEM) cells; test: Cytostatic activity, CEM cell proliferation; type: cell-based; conditions: mean ± SD of three experiments; highest concentration tested 250 µM; 3 days; read-out: Toxicity (IC50) CEM
How it was run: as §2

VE 148 (VanB) = test: MIC, VanB-type VRE strain VE 148; type: cell-based, Enterococcus; conditions: VE 148, VanB; read-out: MIC
How it was run: as §1

E. faecalis VRE 6 = test: MIC, broth microdilution, vancomycin-resistant E. faecalis VRE 6 (VanA); type: cell-based, Enterococcus faecalis
How it was run: as §1

MRSA KS6 = test: MIC, broth microdilution, MRSA KS6; type: cell-based, Staphylococcus aureus
How it was run: as §1

[7] = test system: S. aureus VSSA (ATCC 6538); test: MIC, broth microdilution, vancomycin-sensitive S. aureus (VSSA/MSSA, ATCC 6538); type: cell-based, Staphylococcus aureus
How it was run: as §1

MRSA KS89 = test: MIC, broth microdilution, MRSA KS89; type: cell-based, Staphylococcus aureus
How it was run: as §1

VE 82 (VanC1) = test: MIC, VanC1-type VRE strain VE 82; type: cell-based, Enterococcus gallinarum; conditions: VE 82, VanC1; read-out: MIC
How it was run: as §1

[8] = test system: Clostridium difficile AIU ribotype 027; test: MIC, plate drop assay, C. difficile AIU ribotype 027; type: cell-based; conditions: for MIC-fold improvement vs. vancomycin: C. difficile AIU ribotype 027
How it was run: as §3

S. aureus VRSA = test: MIC, broth microdilution, vancomycin-resistant S. aureus (VRSA); type: cell-based, Staphylococcus aureus
How it was run: as §1

MRSA KS1 = test: MIC, broth microdilution, MRSA KS1; type: cell-based, Staphylococcus aureus
How it was run: as §1

VE 149 (VanB) = test: MIC, VanB-type VRE strain VE 149; type: cell-based, Enterococcus; conditions: VE 149, VanB; read-out: MIC
How it was run: as §1

E. faecalis VRE 29 = test: MIC, broth microdilution, vancomycin-resistant E. faecalis VRE 29 (VanA); type: cell-based, Enterococcus faecalis
How it was run: as §1

VE 157 (VanB) = test: MIC, VanB-type VRE strain VE 157; type: cell-based, Enterococcus; conditions: VE 157, VanB; read-out: MIC
How it was run: as §1

VE 150 (VanB) = test: MIC, VanB-type VRE strain VE 150; type: cell-based, Enterococcus; conditions: VE 150, VanB; read-out: MIC
How it was run: as §1

In the case of CNC(CC(C)C)C(=O)NC1C(=O)NC(CC(N)=O)C(=O)NC2C(=O)NC3C(=O)NC(C(=O)NC(C(=O)NCCCNC(=O)c4ccc5cc(NS(=O)(=O)c6ccc(C(C)C)cc6)ccc5c4)c4cc(O)cc(O)c4-c4cc3ccc4O)C(O)c3ccc(c(Cl)c3)Oc3cc2cc(c3OC2OC(CO)C(O)C(O)C2OC2CC(C)(N)C(O)C(C)O2)Oc2ccc(cc2Cl)C1O (stereo not drawn) [Vanc-66], the “MIC-fold improvement vs. vancomycin” value (MRSA KS2; MRSA KS2, ratio of MIC of vancomycin and MIC of analogue) is reported as 2, the MIC (MRSA KS2; Staphylococcus aureus MRSA KS2, read-out: MIC) is reported as 0.39 µM (≈ 0.724 µg/mL) and the IC50 [1] is reported as 78 ± 49 µM. For the same molecule, the “MIC-fold improvement vs. vancomycin” value [2] was “up to 45”, the MIC ([2]; C. difficile ATJ ribotype 014/20, plate drop assay) was 0.78 µM (≈ 1.45 µg/mL) and the “MIC-fold improvement vs. vancomycin” value ([2]; listed as Vanc- 66) was 45. For the same molecule, the IC50 ([3]; average IC50 used for TI in Table S5, >250 entered as 250, read-out: IC50) was 190 µM, the IC50 ([3]; average of L1210, CEM and HeLa, read-out: Toxicity (IC50) Average) was 190 µM and the MIC (E. faecalis VRE 53; Enterococcus faecalis VRE 53 (vancomycin-resistant), read-out: MIC) was 25 µM (≈ 46.4 µg/mL). The “MIC-fold improvement vs. vancomycin” value (E. faecalis VRE 53; VRE 53, ratio of MIC of vancomycin and MIC of analogue) was 16, the IC50 [4] was > 250 µM and the MIC (S. aureus VISA/HIP5827; Staphylococcus aureus VISA/HIP5827, read-out: MIC) was 0.78 µM (≈ 1.45 µg/mL). For the same molecule, the “MIC-fold improvement vs. vancomycin” value (S. aureus VISA/HIP5827; VISA/HIP5827, ratio of MIC of vancomycin and MIC of analogue) was 8, the “MIC Range” value ([5]; 24 clinical MRSA isolates) was 0.20 to 3.13 µM and the “TI (IC50/MIC50)” value ([5]; in vitro therapeutic index, MRSA) was 238. It also gave an MIC50 ([5]; median MIC, 24 clinical MRSA isolates, read-out: MIC50) of 0.78 µM (≈ 1.45 µg/mL), an MIC (VE 152 (VanB)) of 0.78 µM (≈ 1.45 µg/mL) and an MIC (E. faecalis VSE 1; Enterococcus faecalis VSE 1 (vancomycin-sensitive), read-out: MIC) of 0.39 µM (≈ 0.724 µg/mL). The “MIC-fold improvement vs. vancomycin” value (E. faecalis VSE 1; VSE 1, ratio of MIC of vancomycin and MIC of analogue) was 4, the “MIC Range” value (33 clinical VRE isolates; 33 clinical VRE isolates) was 1.56 to 12.5 µM and the “TI (IC50/MIC50)” value (33 clinical VRE isolates; in vitro therapeutic index, VRE) was 61. For the same molecule, the MIC50 (33 clinical VRE isolates; median MIC, 33 clinical VRE isolates, read-out: MIC50) was 3.13 µM (≈ 5.81 µg/mL), the MIC (E. faecalis VRE 37; Enterococcus faecalis VRE 37 (vancomycin-resistant), read-out: MIC) was 3.13 µM (≈ 5.81 µg/mL) and the “MIC-fold improvement vs. vancomycin” value (E. faecalis VRE 37; VRE 37, ratio of MIC of vancomycin and MIC of analogue) was 128. For the same molecule, the “MBC relative to MIC” value (MRSA) was “MBC equaling their MIC values”, the IC50 [6] was 243 ± 10 µM and the MIC (VE 148 (VanB)) was 1.56 µM (≈ 2.9 µg/mL). For the same molecule, the MIC (E. faecalis VRE 6; Enterococcus faecalis VRE 6 (vancomycin-resistant), read-out: MIC) was 1.56 µM (≈ 2.9 µg/mL), the “MIC-fold improvement vs. vancomycin” value (E. faecalis VRE 6; VRE 6, ratio of MIC of vancomycin and MIC of analogue) was 128 and the “MIC-fold improvement vs. vancomycin” value (MRSA KS6; MRSA KS6, ratio of MIC of vancomycin and MIC of analogue) was 4. The MIC (MRSA KS6; Staphylococcus aureus MRSA KS6, read-out: MIC) was 0.20 µM (≈ 0.371 µg/mL), the MIC ([7]; Staphylococcus aureus VSSA, read-out: MIC) was 0.78 µM (≈ 1.45 µg/mL) and the “MIC-fold improvement vs. vancomycin” value ([7]; VSSA, ratio of MIC of vancomycin and MIC of analogue) was 1. For the same molecule, the “MIC-fold improvement vs. vancomycin” value (MRSA KS89; MRSA KS8, ratio of MIC of vancomycin and MIC of analogue) was 2, the MIC (MRSA KS89; Staphylococcus aureus MRSA KS8, read-out: MIC) was 0.39 µM (≈ 0.724 µg/mL) and the MIC (VE 82 (VanC1)) was 0.78 µM (≈ 1.45 µg/mL). For the same molecule, the “MIC-fold improvement vs. vancomycin” value [8] was ≤ 58, the MIC ([8]; C. difficile AIU ribotype 027, plate drop assay) was 0.78 µM (≈ 1.45 µg/mL) and the “MIC-fold improvement vs. vancomycin” value ([8]; listed as Vanc- 66) was 58. For the same molecule, the MIC (S. aureus VRSA; Staphylococcus aureus VRSA, read-out: MIC) was 0.39 µM (≈ 0.724 µg/mL), the “MIC-fold improvement vs. vancomycin” value (S. aureus VRSA; VRSA, ratio of MIC of vancomycin and MIC of analogue) was 256 and the “MIC-fold improvement vs. vancomycin” value (MRSA KS1; MRSA KS1, ratio of MIC of vancomycin and MIC of analogue) was 1. For the same molecule, the MIC (MRSA KS1; Staphylococcus aureus MRSA KS1, read-out: MIC) was 0.78 µM (≈ 1.45 µg/mL), the MIC (VE 149 (VanB)) was 0.78 µM (≈ 1.45 µg/mL) and the MIC (E. faecalis VRE 29; Enterococcus faecalis VRE 29 (vancomycin-resistant), read-out: MIC) was 3.13 µM (≈ 5.81 µg/mL). For the same molecule, the “MIC-fold improvement vs. vancomycin” value (E. faecalis VRE 29; VRE 29, ratio of MIC of vancomycin and MIC of analogue) was 128, the MIC (VE 157 (VanB)) was 0.78 µM (≈ 1.45 µg/mL) and the MIC (VE 150 (VanB)) was 0.78 µM (≈ 1.45 µg/mL).
